Where no end group is shown, it is not given here.
How the values were obtained:
[1] = test system: experimental APS induced by anti-β2GPI mAb G-3; assay: Murine experimental APS induced by G-3 mAb; type: in vivo, BALB/c mice; settings: mice infused with G-3 mAb, peptide 40 μg/mouse daily 3 days, day 15
Experimental: (§1) (i) Mice: Female BALB/c mice, aged 10–12 weeks, were purchased from Tel-Aviv University Animal House, Israel. The females were caged overnight with BALB/c males and examined for vaginal plug next morning. The presence of the plug was considered as day 0 of pregnancy in all the studied groups. (j) Induction of murine experimental APS. Mice were infused intravenously with 20 μg of each one of the anti-β2GPI ILA-1, ILA-3, and G-3 mAbs at day 0 (the day at which a vaginal plug was observed following mating) (Blank et al., 1991), 6 hours later the mice received daily 40 μg/mouse of the tested peptides during 3 days. The mice were bled and sacrificed on day 15 of pregnancy. Fetal resorptions, activated partial thromboplastin time and platelet counts (markers of the APS-equivalent in mice) were determined as described (Blank et al., 1991). Significant fetal loss, thrombocytopenia and prolonged activated thromboplastin time (aPTT) were induced in naive mice following passive intravenous administration of the three anti-β2GPI mAbs ILA-1, ILA-3 and G-3, as described in Materials and Methods, section (j). The clinical manifestations of the experimental APS were prevented by infusion of the specific peptide monomers A, B, C which were delivered to the mice with the corresponding pathogenic anti-β2GPI mAbs, as shown in Table 2. […] Similarly, mice which were preinfused with control IgM and received a cocktail of the peptide monomers (A+B+C), were not affected.

anti-β2GPI G-3 mAb = assay: Cyto-ELISA: inhibition of G-3 mAb binding to HUVEC; parameters: species or system human; settings: peptide concentration of 10 μM
Experimental: (§2) FIGS. 2A–2C are graphs showing inhibition of the anti-β2GPI ILA-1, ILA-3 and G-3 mAbs binding to human umbilical vein endothelial cells (HUVEC) by competition assays using increasing concentrations of the inhibitory monomer peptides A, B and C, respectively, and of unrelated peptide D as control. The percent of inhibition was calculated as in FIG. 1 above. Each point represents mean±SD of three different experiments.
(§3) (f) Anti-β2GPI mAb binding to endothelial cells in the presence of the inhibitory peptides. Human umbilical vein endothelial cells (HUVEC) were isolated as previously described and cultured under standard conditions (Jaffe et al., 1973). Briefly, umbilical cords were treated with collagenase (0.2% from Clostridium histolyticum, Boehringer) for 20 min at 37° C., cells were cultured in medium 199 with 20% FCS, 10 μg/ml growth supplement, 100 μg/ml heparin and antibiotics (streptomycin, penicillin), and used at passages 1–2 for plating onto gelatin-coated 96-well plates. Cyto-ELISA was performed as detailed before (Jaffe et al., 1973). Briefly, mAbs at different concentrations were added to HUVEC confluent wells, previously coated with 10 μg/ml β2GPI for 2 hours and fixed with 0.1% glutaraldehyde. The bound mAb was detected by further 1-hour incubation with alkaline phosphatase-conjugated goat anti-human IgM. […]

[2] = test system: experimental APS induced by anti-β2GPI mAb ILA-3; assay: Murine experimental APS induced by ILA-3 mAb; type: in vivo, BALB/c mice; settings: mice infused with ILA-3 mAb, peptide 40 μg/mouse daily 3 days, day 15
Experimental: as §1

anti-β2GPI ILA-1 mAb = assay: Cyto-ELISA: inhibition of ILA-1 mAb binding to HUVEC; parameters: species or system human; settings: peptide concentration of 10 μM
Experimental: as §2, §3

CATLRVYKGG [Peptide C]
% Fetal loss (Resorbed fetuses/Total fetuses) [1]: 7 ± 2% | Platelet count [1]: 1242 cells/mm^3 × 10^−3 | aPTT (activated partial thromboplastin time) [1]: 31 ± 4 s | aPTT (activated partial thromboplastin time) ([1]; listed as peptide C): 31 ± 4 s | inhibition of G-3 mAb binding to HUVEC (anti-β2GPI G-3 mAb): 92%

KDKATFGTHDG [Peptide B]
% Fetal loss (Resorbed fetuses/Total fetuses) [2]: 6 ± 2% | Platelet count [2]: 1137 cells/mm^3 × 10^−3 | aPTT (activated partial thromboplastin time) [2]: 27 ± 2 s | aPTT (activated partial thromboplastin time) ([2]; listed as peptide B): 27 ± 2 s

NTLKTPRVGG [Peptide A]
inhibition of ILA-1 mAb binding to HUVEC (anti-β2GPI ILA-1 mAb): 95%

Reference: US7053178B2, “Synthetic peptides and kits for diagnosis of anti-phospholipid syndrome” (Yeda Research Development Co., LTD, priority 1998, dated 2006)
